The data set is described as follows: photoluminescence quantum yield (fraction); solvent given as SMILES.

`c1ccc(-c2cc(-c3ccccc3)cc(-c3ccc4c(c3)C3(c5cc(-c6cc(-c7ccccc7)cc(-c7ccccc7)c6)ccc5-4)c4ccccc4-c4c3c3c5ccccc5ccc3c3ccccc43)c2)cc1` showed a photoluminescence quantum yield (in Cc1ccccc1) of 0.59.

In turn, `Cc1c2c(c(C)c3ccccc13)-c1c-2ccc2nc3ccccc3nc12` gave a photoluminescence quantum yield (in ClC(Cl)Cl) of 0.02.

`CN(C)c1ccc(C2=[N+]3C(=Nc4c5ccccc5c(-c5ccc(N(C)C)cc5)n4[B-]3(F)F)c3ccccc32)cc1`: the photoluminescence quantum yield (in ClCCl) came out at 0.01.

Compound `Oc1ccc(C2=N[N+]3=Cc4c(ccc5ccccc45)O[B-]3(c3ccc([B-]45OC(c6ccc(O)cc6)=N[N+]4=Cc4c(ccc6ccccc46)O5)cc3)O2)cc1` (stereo not given) yielded a photoluminescence quantum yield (in C1CCOC1) of 0.01.

As to `c1ccc(-c2nc(-c3ccccc3)nc(-c3ccc(-n4c5ccccc5c5c6c(ccc54)C4(c5ccccc5-c5ccccc54)c4ccccc4-6)cc3)n2)cc1`, where the note is “in O=P(c1ccccc1)(c1ccccc1)c1ccccc1Oc1ccccc1P(=O)(c1ccccc1)c1ccccc1”, the photoluminescence quantum yield came to 0.45.

As for `CC1(C)c2ccccc2N(c2ccc(-c3cnc(C#N)nc3)cc2)c2ccccc21`, the photoluminescence quantum yield by setting is: (in Cc1ccccc1) 0.311; (in N#Cc1ccc2c(c1)c1ccccc1n2-c1cccc(-n2c3ccccc3c3ccccc32)c1) 1.

Where the note is “in Cc1ccccc1”, `c1ccc(-c2ccc(-c3nc(-n4c5ccccc5c5ccc6c7ccccc7n(-c7ccccc7)c6c54)nc(-n4c5ccccc5c5ccc6c7ccccc7n(-c7ccccc7)c6c54)n3)cc2)cc1` gave a photoluminescence quantum yield of 0.1.

Regarding `COc1ccc2c(c1)C(=O)c1ccccc1-2`, the photoluminescence quantum yield is 0.034 (in C1CCCCC1), 0.0018 (in CC#N) and 0 (in CCO).

In turn, `Ic1ccc(C2=C3C=CC4=[N+]3[B-]3(Oc5ccccc54)Oc4ccccc4-c4ccc2n43)cc1` (stereo not given) gave a photoluminescence quantum yield (in ClC(Cl)Cl) of 0.41.

In the case of `Cc1ccc(C#Cc2ccc3ccc4cccc5ccc2c3c45)cc1`, the photoluminescence quantum yield (in CCCCCC) came out at 0.29, the photoluminescence quantum yield (in CCO) came out at 0.3, the photoluminescence quantum yield (in CCOC(C)=O) was determined as 0.29 and the photoluminescence quantum yield (in ClCCl) was 0.38.

The compound `CCCCN1\C(=C/C=C/C=C/C2=[N+](CCCC)c3ccc4ccccc4c3C2(C)C)C(C)(C)c2c1ccc1ccccc21` displayed a photoluminescence quantum yield (in CS(C)=O) of 0.291.

For the setting “in ClCCl”, `c1ccc(Cc2c3ccc(=[N+]4CCCCC4)cc-3oc3cc(N4CCCCC4)ccc23)cc1` had a photoluminescence quantum yield of 0.87.

Consider `CCCCCCc1ccc2c3c(ccc2c1)O[B-](c1ccccc1)(c1ccccc1)[N+](c1cc([N+]2=Cc4c(ccc5cc(CCCCCC)ccc45)O[B-]2(c2ccccc2)c2ccccc2)cc([N+]2=Cc4c(ccc5cc(CCCCCC)ccc45)O[B-]2(c2ccccc2)c2ccccc2)c1)=C3`, for which the photoluminescence quantum yield is, setting by setting: (in C1CCOC1) 0.21; (in CC#N) 0.19; (in Cc1ccccc1) 0.29; (in ClCCl) 0.31.

Consider `Cc1cc(C)c(B(c2ccc(-c3ccc4ccc5cccc6ccc3c4c56)cc2)c2c(C)cc(C)cc2C)c(C)c1`, for which, where the note is “in Cc1ccccc1”, the photoluminescence quantum yield came to 0.61.

Take `F[Si-](F)(c1ccccc1)(c1ccccc1)c1cccc2ccccc12`: the photoluminescence quantum yield (in C1CCOC1) came to 0.061.

For the compound `Cc1cccn2c1cc1c3ccccc3nc(-c3ccc(Cl)o3)c12`, the photoluminescence quantum yield (in CS(C)=O) came to 0.31.

In the case of `CC/[NH+]=c1\cc2oc3cc(NCCOC(=O)C(NC(=O)OC(C)(C)C)C(C)C)c4ccccc4c3nc-2cc1C` (stereo not given), the photoluminescence quantum yield (in CCO) turned out to be 0.32 and the photoluminescence quantum yield (in O) is 0.26.

Take `CCOC(=O)c1sc2nc(C)c(CC)c(C#N)c2c1N`: the photoluminescence quantum yield (in c1ccccc1) was determined as 0.054.

The compound `CCCCCCN1C(=O)c2cc(-c3ccc(-n4c5ccccc5c5ccccc54)cc3)c(-c3ccc(-n4c5ccccc5c5ccccc54)cc3)cc2C1=O` displayed a photoluminescence quantum yield (in ClC(Cl)Cl) of 0.78 and a photoluminescence quantum yield (in c1ccc2c(c1)c1ccccc1n2-c1ccc(-c2ccc(-n3c4ccccc4c4ccccc43)cc2)cc1) of 0.7.

Compound `CCn1c2ccccc2c2cc(C#Cc3cc(C#Cc4ccc5c(c4)c4ccccc4n5CC)nc(SC)n3)ccc21` came in with a photoluminescence quantum yield (in C1CCOC1) of 0.61; a photoluminescence quantum yield (in CCOC(C)=O) of 0.62; a photoluminescence quantum yield (in CN(C)C=O) of 0.56; a photoluminescence quantum yield (in Cc1ccccc1) of 0.53; a photoluminescence quantum yield (in ClCCl) of 0.64.

As for `O=P1(c2ccccc2)c2cccc3c4ccccc4c4ccc1n4c23` (stereo not given), the photoluminescence quantum yield (in ClCCl) came out at 0.25.

For `COc1cc(/C=C/c2ccccc2)cc(OC)c1`, the photoluminescence quantum yield (in C1CCCCC1) was determined as 0.18; the photoluminescence quantum yield (in CC#N) was 0.32; the photoluminescence quantum yield (in CC(C)O) stood at 0.27; the photoluminescence quantum yield (in CCCCOCCCC) was found to be 0.26; the photoluminescence quantum yield (in CCOC(C)=O) is 0.29; the photoluminescence quantum yield (in CCOCC) came out at 0.27.

For the compound `Cc1cn2cc(-c3ccc([N+](=O)[O-])cc3)[n-][n+]2c1`, the photoluminescence quantum yield (in ClCCl) was 0.022.

On to `CCN(CC)c1ccc2cc(-c3csc(NC(C)=O)c3C#N)c(=O)oc2c1`, for which the photoluminescence quantum yield by setting is: (in C1CCOC1) 0.34; (in CS(C)=O) 0.07; (in ClCCl) 0.33.

Where the note is “in ClCCl”, `N#Cc1ccc(-n2c(-c3ccc(-c4ccc(-c5nc6c7ccccc7c7ccccc7c6n5-c5ccc(C#N)c6ccccc56)cc4)cc3)nc3c4ccccc4c4ccccc4c32)c2ccccc12` came in with a photoluminescence quantum yield of 0.85.

In the case of `CC1=CC(C)=[N+]2C1=C(c1ccc(I)cc1)c1c(C)cc(C)n1[B-]2(Oc1ccccc1)Oc1ccccc1`, under “in ClC(Cl)Cl”, the photoluminescence quantum yield was found to be 0.06.

For `C=Cc1cc(OC)cc(OC)c1`, the photoluminescence quantum yield is, setting by setting: (in C1CCCCC1) 0.12; (in CC#N) 0.5.

For the compound `CCN1c2ccc(/C=N/Nc3ccccn3)cc2Sc2cc(-c3cccc4ccccc34)ccc21`, the photoluminescence quantum yield was 0.2 (in C1CCOC1), 0.35 (in CS(C)=O), 0.1 (in Cc1ccccc1) and 0.3 (in ClCCl).

With `C=CCNS(=O)(=O)c1ccc2c(c1)C(=O)/C(=C1\Sc3ccc(S(=O)(=O)NCC=C)cc3C1=O)S2`, the photoluminescence quantum yield was 0.197 (in CN(C)C=O) and 0.006 (in CS(C)=O).

In the case of `c1ccc(N(c2ccccc2)c2ccc(-c3ncc(-c4ccc(-c5cnc(-c6ccc(N(c7ccccc7)c7ccccc7)cc6)s5)s4)s3)cc2)cc1`, the photoluminescence quantum yield (in CO) amounted to 0.16.

Turning to `N#Cc1nc(N(Cc2ccc(I)cc2)Cc2ccc(I)cc2)c(C#N)nc1N(Cc1ccc(I)cc1)Cc1ccc(I)cc1`, for the setting “in ClC(Cl)Cl”, the photoluminescence quantum yield is 0.79.

Under “in ClCCl”, `CSc1ccc(/C=C/c2ccncn2)cc1` yielded a photoluminescence quantum yield of 0.01.

Turning to `CC(C)(C)c1ccc(C#Cc2cc(C#Cc3ccc(C(C)(C)C)cc3)c(C#Cc3ccc(C(C)(C)C)cc3)c(C#Cc3ccc(C(C)(C)C)cc3)c2C#Cc2ccc(C(C)(C)C)cc2)cc1`, the photoluminescence quantum yield (in ClCCl) stood at 0.41.

`CCC1(CC)c2cc(/C=C/c3ccc(N(c4ccccc4)c4ccccc4)cc3)ccc2-c2ccc(/C=C/c3ccc(N(c4ccccc4)c4ccccc4)cc3)cc21` showed a photoluminescence quantum yield (in Cc1ccccc1) of 0.84.

With `CN(C)CCCN1c2ccccc2Sc2ccc(C(F)(F)F)cc21`, the photoluminescence quantum yield was 0.0011 (in CC#N), 0.001 (in CO) and 0.0014 (in O).

For the compound `COc1ccc(-c2cc(C)nc(-c3ccc(-n4c5ccccc5c5ccccc54)cc3)n2)cc1`, the photoluminescence quantum yield was found to be 0.47 (in C1CCOC1), 0.66 (in CN(C)C=O), 0.34 (in Cc1ccccc1) and 0.68 (in ClC(Cl)Cl).

Compound `Oc1ccc2ccccc2c1/C=N/c1ccccc1/N=C/c1c(O)ccc2ccccc12` displayed a photoluminescence quantum yield (in CC#N) of 0.3.

Where the note is “in Cc1ccccc1”, `CCCCC(CC)CN1C(=O)c2cc(Oc3ccc(OC)cc3)c3c4c(Cl)cc5c6c(cc(Cl)c(c7c(Oc8ccc(OC)cc8)cc(c2c37)C1=O)c64)C(=O)N(c1c(C(C)C)cccc1C(C)C)C5=O` (stereo not given) registered a photoluminescence quantum yield of 0.13.

`COc1ccc(C#Cc2c3cc4ccccc4cc3c(C#Cc3ccc(OC)cc3)c3cc4ccccc4cc23)cc1` yielded a photoluminescence quantum yield (in ClCCl) of 0.03.

With `CCN(CC)c1ccc2c(c1)C(C)(C)C(=O)C=C2`, the photoluminescence quantum yield (in O) was determined as 0.09.

`O=C(O)COc1cccc(OCC(=O)O)c1-c1c2ccc(=[N+]3CCCCC3)cc-2oc2cc(N3CCCCC3)ccc12`: the photoluminescence quantum yield is, setting by setting: (in CCO) 0.49; (in O) 0.13.

For `CCCCCCCCOc1ccc2c3c(c4ccc(OCCCCCCCC)cc4c2c1)C(C)(C)c1ccccc1-3`, for the setting “in C1CCCCC1”, the photoluminescence quantum yield worked out at 0.24.

`CN(C)c1ccc(N(C)C)cc1` showed a photoluminescence quantum yield (in C1CCCCC1) of 0.21.

As to `CCN(CC)c1ccc2cc(-c3nc4ccccc4s3)c(=O)oc2c1`, the photoluminescence quantum yield by setting is: (in C1CCCCC1) 0.59; (in CC1CCCCC1) 0.56; (in CC#N) 0.43; (in CCC(C)CC) 0.57; (in CCCCCC) 0.57; (in CCOC(C)=O) 0.47.

Turning to `N#C/C(=C\c1ccc(C=C(c2ccccc2)c2ccccc2)cc1)c1ccccc1`, the photoluminescence quantum yield (in C1CCOC1) was determined as 0.045.

`COc1ccc(C2=[N+]3C(=Nc4c(-c5ccccc5-c5ccc(C(C)(C)C)cc5)cc(-c5ccc(OC)cc5)n4[B-]3(F)F)c3c2c2cc(C(C)(C)C)ccc2c2ccccc32)cc1` registered a photoluminescence quantum yield (in Cc1ccccc1) of 0.38.

Where the note is “in C1CCOC1”, `COc1cc2c(cc1-c1ccc(C#N)cc1)Cc1c3c(c4c(c1-2)-c1cc(OC)c(-c2ccc(C#N)cc2)cc1C4)C(=O)N(CCC(C)C)C3=O` came in with a photoluminescence quantum yield of 0.51.

Turning to `Cc1cc(C)c(C2=C3C=c4c(c5ccc(C(C)(C)C)cc5c5cc(C(C)(C)C)ccc45)=[N+]3[B-](F)(F)n3c2cc2c4ccc(C(C)(C)C)cc4c4cc(C(C)(C)C)ccc4c23)c(C)c1`, the photoluminescence quantum yield runs as follows: (in C1CCCCC1) 0.3; (in C1CCOC1) 0.25; (in CC#N) 0.24; (in Cc1ccccc1) 0.29; (in ClCCl) 0.25.

With `C#CCNC1=C2C(C)=CC(C)=[N+]2[B-](F)(F)n2c(C)cc(C)c21`, the photoluminescence quantum yield runs as follows: (in C1CCCCC1) 0.23; (in CC(C)=O) 0.063; (in CCOC(C)=O) 0.084; (in CO) 0.051; (in OCC(F)(F)F) 0.074.

For the origin of these results see the Deep4Chem optical property database.
